Experimental data from BindingDB's records for patent US11958871 (Fraunhofer-Gesellschaft Zur Forderung Der Angewandten …, 2024).

Experiments:
[1] = molecular target: T1, Peptidase M28 domain-containing protein (Prevotella nigrescens CC14M, UniProt V8CNC2)
T1 sequence (V8CNC2 whole entry): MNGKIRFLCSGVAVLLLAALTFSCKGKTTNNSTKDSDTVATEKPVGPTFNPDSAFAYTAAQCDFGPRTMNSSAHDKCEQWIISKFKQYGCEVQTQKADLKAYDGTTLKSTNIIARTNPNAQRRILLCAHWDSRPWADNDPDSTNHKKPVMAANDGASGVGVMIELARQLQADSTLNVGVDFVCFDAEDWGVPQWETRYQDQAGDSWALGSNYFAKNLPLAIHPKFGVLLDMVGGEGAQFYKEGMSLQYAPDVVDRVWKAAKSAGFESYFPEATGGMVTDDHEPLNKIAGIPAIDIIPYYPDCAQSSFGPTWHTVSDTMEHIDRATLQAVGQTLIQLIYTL

[2] = molecular target: T2, Glutamine cyclotransferase-related protein (Porphyromonas gingivalis (strain ATCC BAA-308 / W83), UniProt Q7MT37); experiment: Inhibition of Glutaminyl Cyclases
T2 sequence (Q7MT37 whole entry): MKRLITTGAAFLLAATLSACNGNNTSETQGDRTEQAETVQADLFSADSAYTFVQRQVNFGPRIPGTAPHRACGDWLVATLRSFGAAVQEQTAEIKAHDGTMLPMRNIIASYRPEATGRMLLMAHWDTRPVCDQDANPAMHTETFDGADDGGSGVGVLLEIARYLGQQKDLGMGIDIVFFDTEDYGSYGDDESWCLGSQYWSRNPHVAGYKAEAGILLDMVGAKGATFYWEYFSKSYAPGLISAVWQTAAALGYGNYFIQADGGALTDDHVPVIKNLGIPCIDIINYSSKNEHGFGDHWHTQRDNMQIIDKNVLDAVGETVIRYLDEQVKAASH
Protocol: For inhibitor testing, the sample composition was the same as described above, except for the addition of the putative inhibitory compound. […] Inhibitory constants were determined using different concentration of H-Gln-AMC varying from Km-2 Km. Final concentration of bacterial QC was in a range between 25 nM-50 nM.

[3] = molecular target: Glutaminyl-peptide cyclotransferase (Homo sapiens, UniProt Q16769)
Sequence of Glutaminyl-peptide cyclotransferase (Q16769 whole entry): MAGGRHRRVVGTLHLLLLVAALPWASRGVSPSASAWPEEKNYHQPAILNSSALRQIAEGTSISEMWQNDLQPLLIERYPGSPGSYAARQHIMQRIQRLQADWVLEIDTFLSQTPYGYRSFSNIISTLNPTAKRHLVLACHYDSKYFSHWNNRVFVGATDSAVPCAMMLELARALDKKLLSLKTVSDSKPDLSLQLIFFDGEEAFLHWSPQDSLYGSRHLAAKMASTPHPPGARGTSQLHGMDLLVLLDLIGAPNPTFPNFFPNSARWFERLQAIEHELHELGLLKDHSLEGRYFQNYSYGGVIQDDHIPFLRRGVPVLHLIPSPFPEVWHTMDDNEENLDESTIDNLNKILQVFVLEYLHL

Peptidase, M28 family = molecular target: T3, Peptidase, M28 family (Tannerella forsythia (strain ATCC 43037 / JCM 10827 / CCUG 21028 A / KCTC 5666 / FDC 338), UniProt G8UMP8)
T3 sequence (G8UMP8 whole entry): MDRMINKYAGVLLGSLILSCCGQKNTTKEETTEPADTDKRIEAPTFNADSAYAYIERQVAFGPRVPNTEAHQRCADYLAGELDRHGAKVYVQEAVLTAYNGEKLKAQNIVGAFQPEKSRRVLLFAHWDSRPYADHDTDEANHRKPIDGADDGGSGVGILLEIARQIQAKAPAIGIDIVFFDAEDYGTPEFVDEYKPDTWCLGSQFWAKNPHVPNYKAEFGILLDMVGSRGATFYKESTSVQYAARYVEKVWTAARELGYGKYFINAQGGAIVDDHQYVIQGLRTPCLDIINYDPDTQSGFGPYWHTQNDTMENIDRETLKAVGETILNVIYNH

SMILES | Ki [1] | Ki [2] | Ki [3] | Ki (Peptidase, M28 family)
c1ccc(CNc2ccc3nc[nH]c3n2)cc1 [US11958871, Example 1] | 9400 nM | – | – | –
c1cc(CNc2cnc3[nH]cnc3c2)cc(N2CCCCC2)c1 [US11958871, Example 9] | – | 442 nM | – | –
COc1ccc(CNc2cnc3[nH]cnc3c2)cc1 [US11958871, Example 7] | – | 83 nM | – | –
c1cncc(CNc2cnc3[nH]cnc3c2)c1 [US11958871, Example 11] | – | 139 nM | – | –
COc1cccc(CNc2cnc3[nH]cnc3c2)c1 [US11958871, Example 6] | – | 77 nM | 599 nM | –
Clc1cccc(CNc2cnc3[nH]cnc3c2)c1 [US11958871, Example 5] | – | 106 nM | 769 nM | –
c1nc2cc(NCc3ccsc3)cnc2[nH]1 [US11958871, Example 8] | – | 185 nM | 1870 nM | –
Clc1ccc(CNc2cnc3[nH]cnc3c2)cc1Cl [US11958871, Example 14] | – | 53 nM | 431 nM | 358 nM
c1ccc(CNc2cnc3[nH]cnc3c2)nc1 [US11958871, Example 10] | – | 395 nM | – | –
NCCOc1ccc(CNc2cnc3[nH]cnc3c2)cc1 [US11958871, Example 16] | – | 30 nM | 1070 nM | 317 nM
c1ccc(CNc2cnc3[nH]cnc3c2)cc1 [US11958871, Example 2] | – | 149 nM | 1280 nM | 1400 nM
Fc1cc(CNc2cnc3[nH]cnc3c2)cc(F)c1F [US11958871, Example 3] | – | 157 nM | – | –
c1nc2cc(NCc3ccc4c(c3)OCCO4)cnc2[nH]1 [US11958871, Example 12] | 728 nM | 44 nM | 543 nM | 680 nM
COc1ccc(CNc2cnc3[nH]cnc3c2)cc1OC [US11958871, Example 13] | – | 133 nM | 556 nM | –
CCCOc1ccc(CNc2cnc3[nH]cnc3c2)cc1 [US11958871, Example 15] | – | 34 nM | – | –
